Legend:
[1] = system: primary mouse hepatocytes (C57/b6); test: CCL2 and CCL7 gene expression by qPCR in primary mouse hepatocytes treated for 4 hours; type: cell-based; details: for CCL7 gene expression, fold change compared to no treatment (PBS) control: Compound 2 2 nanomolar to 200 nanomolar, Compound 1 200 nanomolar and 2 micromolar; for CCL2 gene expression, fold change compared to no treatment (PBS) control: normalized to GAPDH, Compound 2 200 picomolar to 200 nanomolar, Compound 1 up to 2 micromolar
Protocol: FIG. 2. Compound 2 has unexpected biological activity in liver cells compared to H1BADP (Compound 1). Primary hepatocytes were isolated from fresh mouse livers of C57/b6 background. Cells were cultured in serum-free medium overnight before treatment with either Compound 1 or Compound 2 for 4 hours. Cells were harvested and mRNA expression analyzed by qPCR.
The reference compound, referred to herein also as “Compound 1” (HMP1BP) is an intermediate in the H1b-ADP biosynthetic pathway generated by the dephosphorylation of HBP (FIG. 1). Derivatives of Compound 1 were generated and their activities tested in primary mouse hepatocytes (C57/b6). […] Hepatocytes were first isolated from fresh C57/b6 mouse livers, transferred to serum-free medium, and cultured overnight before treatment with Compound 1 or Compound 2 for 4 hours. Liver cells were then harvested, the mRNA isolated and gene expression of C—C motif chemokine ligand 2 (CCL2) and C—C motif chemokine ligand 7 (CCL7) was analyzed by qPCR and presented as fold change compared to a no treatment (PBS) control. Gene expression was normalized to the expression of the housekeeping gene, glyceraldehyde-3-phosphate dehydrogenase (GAPDH). […] In this assay.

[2] = system: hepatitis B virus AAV8-1.3 HBV; test: AAV8-1.3 HBV mouse model: serum HBV DNA (qPCR), HBsAg and HBeAg (ELISA); type: in vivo; details: male C57BL/6 mice, 1 mg/kg per dose, vs PBS
Protocol: FIG. 6A-C. Compound 2 reduces hepatitis infection in murine model. Compound 2 was administered (1 mg/kg PO QD) and serum levels of HBV (A), HbsAg (B), or HbeAg (C) were measured after 7 days.
On day 1, male C57BL/6 mice were intravenously (i.v) injected with hepatitis B virus AAV8-1.3 HBV (1×10^11 v/g) (Beijing Five Plus Molecular Medicine Institute). On day 56 post-injection, each mouse was treated with Compound 2 two times per week (1 mg/kg per dose) or PBS. After seven days of treatment (at day 63 post injection), mouse serum was collected for analysis by qPCR (HBV DNA) and ELISA for Hepatitis B virus surface antigen (HBsAg) and Hepatitis B e-antigen (HBeAg). […] Specifically, the Compound 1 derivatives show tissue-specific liver cell activity and strong induction of cytokine and chemokine genes while also reducing HBV DNA and antigen titers in the serum of infected mice.

[3] = system: CCL2 and CCL7 gene expression in kidney, esophagus, liver, lung, brain, and stomach; test: CCL2 and CCL7 gene expression by qPCR in organs of mice after oral gavage; type: in vivo, mouse; details: 4 hours
Protocol: FIG. 4. Compound 2 activates cytokine expression only in the liver. 8 week old C57 females were administrated Compound 2 by oral gavage in 200 ul of Saline and 1.5% DMSO as diluent. Four hours later, organs were dissected and gene expression of CCL2 and CCL7 was analyzed by qPCR in kidney, esophagus, liver, lung, brain, and stomach.
In this experiment, CCL7 was expressed more than 50-fold above the PBS control and CCL2 was expressed more than 20-fold above the control.

[4] = system: chemokine and cytokine expression in liver cells; test: Chemokine and cytokine gene expression by qPCR in liver of mice after oral gavage of HMP1BP derivatives; type: in vivo, mouse; details: C57 female mice, 1 mg/kg oral gavage
Protocol: FIG. 5A-B. Oral administration of HMP1BP derivatives activates chemokine and cytokine expression in liver cells. 8 week old C57 female mice were administered saline or the indicated compounds by oral gavage, Compounds 2-7 (1 mg·kg) (A) or compounds 9, 10 (1 mg/kg), 11, 13 and 14 (0.1 mg/kg) (B) were tested. Four hours after administration of saline or compound, organs were dissected and gene expression was analyzed by qPCR for CCL2, CCL7, CXCL1, CXCL10, IFNb, IL1b, IL6, and TNFa (A) or CCL2 and CCL7 (B).
Several additional Compound 1 derivatives were tested for cytokine and chemokine gene induction in hepatocytes. […] Mice were treated as described above. Briefly, 8 week-old C57 female mice were separately administered (1 mg/kg) either one of Compounds 2-7 or a saline/DMSO control by oral gavage and 4 hours later the livers were dissected and gene expression analyzed by qPCR. The gene expression results were normalized to GADPH expression. […] The additional genes tested in this experiment are: CXCL1, encoding C—X—C motif chemokine ligand 1; CXCL10, encoding C—X—C motif chemokine ligand 10; IFNb, encoding interferon beta; IL-1b, encoding interleukin 1 beta; IL6, encoding interleukin 6; and TNFα, encoding tumor necrosis factor alpha. […] All the derivatives induced CCL2 and CCL7 more than 20-fold above the control. Compound 2 induced CCL2, CCL7, CXCL10, IFNb, IL6 and TNFα each more than 20-fold.

[5] = target: T1, ALPK1 (Mus musculus, UniProt Q9CXB8); test: Liver chemokine gene expression by qPCR in ALPK1 knockout and wildtype mice after oral treatment; type: in vivo; set-up: from tissue; host or cells: mouse liver (in vivo, wildtype vs ALPK1 knockout mice); details: WT mice, oral 0.5 mg/kg, 4 hours, normalized to PBS treated WT mice
T1 sequence (Q9CXB8 1-1231): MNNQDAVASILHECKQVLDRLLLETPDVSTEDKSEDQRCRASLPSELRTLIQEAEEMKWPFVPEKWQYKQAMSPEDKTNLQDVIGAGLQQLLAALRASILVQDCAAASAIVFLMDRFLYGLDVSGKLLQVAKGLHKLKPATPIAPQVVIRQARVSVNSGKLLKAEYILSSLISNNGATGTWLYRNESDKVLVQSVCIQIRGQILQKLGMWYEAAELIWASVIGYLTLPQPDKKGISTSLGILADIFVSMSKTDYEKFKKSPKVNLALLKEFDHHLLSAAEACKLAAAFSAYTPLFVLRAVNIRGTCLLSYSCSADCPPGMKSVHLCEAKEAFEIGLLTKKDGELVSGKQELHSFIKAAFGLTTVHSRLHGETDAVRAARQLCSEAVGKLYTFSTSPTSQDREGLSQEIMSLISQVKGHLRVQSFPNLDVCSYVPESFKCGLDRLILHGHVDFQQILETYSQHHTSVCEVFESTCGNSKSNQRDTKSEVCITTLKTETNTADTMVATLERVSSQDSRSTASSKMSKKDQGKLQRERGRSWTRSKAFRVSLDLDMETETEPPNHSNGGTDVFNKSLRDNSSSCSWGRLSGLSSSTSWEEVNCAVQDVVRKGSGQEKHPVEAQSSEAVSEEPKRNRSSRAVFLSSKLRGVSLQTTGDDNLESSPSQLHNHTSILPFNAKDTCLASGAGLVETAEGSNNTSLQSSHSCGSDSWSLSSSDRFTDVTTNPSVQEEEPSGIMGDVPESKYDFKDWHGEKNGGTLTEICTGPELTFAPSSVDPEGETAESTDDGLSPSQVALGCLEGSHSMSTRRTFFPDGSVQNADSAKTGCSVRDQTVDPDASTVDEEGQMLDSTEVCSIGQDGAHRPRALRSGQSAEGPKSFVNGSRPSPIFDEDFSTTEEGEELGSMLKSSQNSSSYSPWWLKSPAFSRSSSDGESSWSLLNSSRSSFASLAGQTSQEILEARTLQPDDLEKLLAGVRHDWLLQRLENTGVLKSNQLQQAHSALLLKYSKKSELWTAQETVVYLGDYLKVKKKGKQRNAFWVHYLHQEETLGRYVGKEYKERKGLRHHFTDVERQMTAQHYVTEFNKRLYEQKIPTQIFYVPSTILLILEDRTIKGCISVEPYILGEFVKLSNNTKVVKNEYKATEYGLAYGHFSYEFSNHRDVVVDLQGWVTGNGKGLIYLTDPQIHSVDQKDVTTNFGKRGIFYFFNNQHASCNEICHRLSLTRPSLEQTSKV
Protocol: FIG. 3. Compound 2 induces chemokine and cytokine expression via ALPK1. ALPK1 knockout (KO) mice and wildtype (WT) control were treated orally with either PBS or Compound 2 (0.5 mg/kg). Four hours after treatment, livers were dissected for gene expression analysis by qPCR. Expression was normalized to PBS treated WT mice.
ALPK1 knockout (KO) mice and wildtype (WT) control were treated orally with either PBS or Compound 2 (0.5 mg/kg). Four hours after treatment, livers were dissected for gene expression analysis by qPCR. Expression was normalized to PBS treated WT mice.

[6] = after seven days of treatment, ELISA
[7] = liver, 8 week-old C57 female mice

| Compound | CCL2 gene expression at the highest concentration tested ([1]; 2 micromolar) | CCL7 gene expression, fold change compared to no treatment (PBS) control [1] | CCL2 gene expression, fold change compared to no treatment (PBS) control [1] | HBV DNA copy number in serum ([2]; after seven days of treatment (day 63 post injection), qPCR) | Hepatitis B e-antigen (HBeAg) in serum [2, 6] | Hepatitis B surface antigen (HBsAg) in serum [2, 6] | cytokine and chemokine gene expression in other organs ([3]; kidney, esophagus, lung, brain, stomach) | CCL2 gene expression above the control [3, 7] | CCL7 gene expression above the PBS control [3, 7] | CCL7 gene induction above the control ([4]; 4 hours (FIG. 5A)) | CXCL10 gene induction ([4]; 4 hours (FIG. 5A)) | IFNb gene induction ([4]; 4 hours (FIG. 5A)) | IL6 gene induction ([4]; 4 hours (FIG. 5A)) | TNFα gene induction ([4]; 4 hours (FIG. 5A)) | CCL2 gene induction above the control ([4]; 4 hours, normalized to GADPH (FIG. 5A)) | expression of CCL2, CCL3, CCL7, and CXCL1 in liver [5] |
| --- | --- | --- | --- | --- | --- | --- | --- | --- | --- | --- | --- | --- | --- | --- | --- | --- |
| O=P(O)(O)O[C@@H]1O[C@H]([C@H](O)CO)[C@@H](O)[C@H](O)[C@@H]1O [Compound 1, (2S,3S,4S,5S,6R)-6-((R)-1,2-dihydroxyethyl)-3,4,5-trihydroxytetrahydro-2H-pyran-2-yl dihydrogen phosphate] | only similar to that induced by the lowest concentration (200 picomolar) of Compound 2 | only a much smaller induction in CCL7 gene expression | did not significantly induces CCL2 expression relative to the PBS control except at the highest concentration tested | – | – | – | – | – | – | – | – | – | – | – | – | – |
| CC(=O)OC[C@H](F)[C@H]1O[C@@H](OP(=O)(Oc2ccccc2)Oc2ccccc2)[C@@H](OC(C)=O)[C@@H](OC(C)=O)[C@@H]1OC(C)=O [Compound 2, (2S,3S,4S,5S,6S)-2-((S)-2-acetoxy-1-fluoroethyl)-6-((diphenoxyphosphoryl)oxy)tetrahydro-2H-pyran-3,4,5-triyl triacetate] | – | induced in a dose-dependent manner | significantly induced CCL2 expression in a dose-dependent manner | significantly reduced HBV DNA copy number | decreased compared to the PBS control | decreased compared to the PBS control | No other organ tissue analyzed showed cytokine and chemokine gene expression | more than 20 fold | more than 50 fold | more than 20 fold | more than 20 fold | more than 20 fold | more than 20 fold | more than 20 fold | more than 20 fold | induce the expression |
| CC(=O)OC[C@H](F)C1O[C@@H](OP(=O)(N[C@@H](C)C(=O)OC(C)C)Oc2ccccc2)C(OC(C)=O)[C@@H](OC(C)=O)[C@@H]1OC(C)=O (stereo partly drawn) [Compound 4, (2S,3S,4S,5S,6S)-2-((S)-2-acetoxy-1-fluoroethyl)-6-(((((S)-1-isopropoxy-1-oxopropan-2-yl)amino)(phenoxy)phosphoryl)oxy)tetra-hydro-2H-pyran-3,4,5-triyl triacetate] | – | – | – | – | – | – | – | – | – | – | – | strong inductive effect | – | – | – | – |

— patent publication US20220213135A1, “DERIVATIVES OF GLYCERO-MANNO-HEPTOSE PHOSPHATE AND THEIR USE IN MODULATING AN IMMUNE RESPONSE” (Shanghai Yao Yuan Biotechnology Co., Ltd., priority 2019, published 2022)
